As usually defined, the density is mass per unit of volume.

Data set [1] concerns Salmonella enterica subsp. enterica ser. Typhimurium ATCC 14028. The data set is classed as cell-based. The conditions noted are these: Example 2; 2×T, 1×NaCl back-extraction medium. On the procedure: A universal schematic for MIL-based cell extraction is depicted in FIG. 7B. A 1 mL volume of diluted cell suspension was added to a flat-bottomed 4-mL screw cap glass vial. Fifteen microliters of either the Ni(II) or Dy(III) MIL was added and dispersed into microdroplets by vortex agitation for 30 s. The aqueous phase was decanted following dispersive extraction, and the MIL was subjected to a brief wash step using 1 mL of nuclease-free water (Integrated DNA Technologies, Coralville, IA, USA) to ensure adequate removal of loosely or incidentally bound cells. After washing, release of viable cells from the MIL extraction phase was carried out using a “back-extraction” step accomplished through addition of 1 mL of an ionically-rich nutritive medium comprised of 20 g L^−1 tryptone and 10 g L^−1 NaCl, followed by a 120 s vortex step. After back-extraction, aliquots of the cell-enriched back-extraction medium were enumerated using the track dilution method using 100×100 mm square, gridded TSA, BSA, CA or VRBGA plates.
Following back-extraction, aliquots of the cell-enriched back-extraction medium were serially diluted in 0.1% peptone water and a 10 μL aliquot of each dilution was applied to a separate lane on square plates containing an appropriate agar medium. The plates were then tilted at an approximately 80° angle for 15 min to allow the droplets to travel toward the opposite end of the plate. The plates were incubated for 24 h at 37° C. (TSA, VRBGA), for 48 h at 37° C. (BSA) or for 24 h at 37° C. (CA). Colonies were counted and colony forming units (CFU) were determined. The enrichment factor (EF) for MIL-based extraction was calculated using Equation 1, where CMIL represents the concentration of bacteria in suspension following extraction using the MIL and CS is the initial concentration of bacteria in the sample.
Because culture-based methods depend on sample preparation steps that preserve bacterial viability, potential deleterious cytotoxic effects imparted by MIL extractants must be considered. To begin our further study of MIL-bacterial interactions, we selected S. typhimurium ATCC 14028 as a model gram-negative pathogen and the Ni(II) MIL as extractant.

Another data set in a line: Density of MIL. The data set is classed as physicochemical.
For data set [2], the system named is Salmonella typhimurium. The following applies: plated to a selective agar; cited from earlier work.
In data set [3] the test system is S. typhimurium ATCC 14028. In words: Exposure of cells and plating on non-selective (TSA) and selective (BSA) agar (viability, injury, toxicity). The class given is cell-based, Salmonella enterica. As for the experimental part:
To examine whether exposure time to the Ni(II) MIL affected cell viability, MIL-based whole-cell extraction was performed using the Ni(II) MIL, and cell-enriched back-extraction media were enumerated at 0, 5, 10 and 15 min on both TSA and BSA. To evaluate toxicity of the [EMIM^+][SCN^−] IL, one milliliter of diluted S. typhimurium ATCC 14028 cell suspension was added to a 4-mL screw cap glass vial. A 5% (vol/vol) or 50% (vol/vol) aqueous solution of 1-ethyl-3-methylimidazolium thiocyanate (“[EMIM^+][SCN^−]”) (IoLiTec, Tuscaloosa, AL, USA) was added and mixed by vortexing for 30 s. Aliquots were enumerated at 0, 5, 10 and 15 min using TSA and BSA.
One milliliter of diluted S. typhimurium ATCC 14028 cell suspension was added to a 4-mL screw cap glass vial. Fifteen microliters of either the Dy(III) MIL or 2-10 μL of 100 mM DyCh solution or 10 mg of the ammonium tetra(hexafluoroaceto)dysprosium salt (15) ([NH4^+][Dy(hfacac)4^−]) (“Dy(III) ammonium salt”) was added and dispersed by vortex agitation for 30 s. Aliquots of the Dy(III) MIL- or Dy(III) ammonium salt-exposed cell suspension were enumerated using square TSA or BSA plates (BD).
Because culture-based methods depend on sample preparation steps that preserve bacterial viability, potential deleterious cytotoxic effects imparted by MIL extractants must be considered. To begin our further study of MIL-bacterial interactions, we selected S. typhimurium ATCC 14028 as a model gram-negative pathogen and the Ni(II) MIL as extractant. Briefly, a 1 mL aliquot of TSB was inoculated with 1×10^5 CFU mL^−1 of bacteria and spiked with 15 μL of the Ni(II) MIL, and the general schematic for MIL-based extraction and recovery followed as shown in FIG. 7B. After extraction, 10 μL aliquots of the back-extraction solution were enumerated at 0, 5, 10 and 15 min using TSA and BSA. Average CFU counts were compared to a standard that was not exposed to the Ni(II) MIL. […] To better understand the data in FIG. 8, statistical analyses of Ni(II) MIL capture precision and CFU count variation as a function of MIL exposure time were performed. Variation in MIL capture may stem from inherent randomness of MIL dispersion and coalescence behaviors.
The effects of 5% or 50% (vol/vol) aqueous solutions of the [EMIM^+][SCN^−] IL on the viability of the cells were also evaluated. Average CFU counts were compared to a standard not exposed to [EMIM^+][SCN^−]. In our hands, when S. typhimurium was exposed to 50% (vol/vol) solutions of [EMIM^+][SCN^−], no recovery was observed on either TSA or BSA after 5 min of exposure.
To gain further insight into this phenomenon, the effect of free elemental dysprosium was evaluated by subjecting the cells to 0.1 mM and 1.0 mM solutions of DyCl3. The cells were exposed to the metal salt solutions for 30 s and subsequently plated on selective and non-selective media.
While the metal did show cytotoxicity, it cannot be completely responsible for the Dy(III) MIL's effect on the cells, as no flocculation was seen and growth was still observed. Since both the Ni(II) and the Dy(III) MILs contain identical cations ([P6,6,6,14^+]), the role of the anion structure was evaluated. The anion of the Dy(III) MIL contains one additional hexafluoroacetylacetonate ligand than the Ni(II) MIL (FIG. 7), making the coordination geometry of the two complexes different. To test the effects of the anion structure, cells were subjected to 10 mg of the Dy(III) ammonium salt. After a 30 second vortex, similar flocculation was observed as when the cells were exposed to the native Dy(III) MIL.

In data set [4] the test system is Salmonella typhimurium. The following applies: thermal (120° C.-150° C.) disintegration; cited from earlier work.
For the next data set, the system named is E. coli. The following applies: thermal (120° C.-150° C.) disintegration; cited from earlier work.

Consider `CCCCCCCCCCCCCC[P+](CCCCCC)(CCCCCC)CCCCCC.O=C([CH-]C(=O)C(F)(F)F)C(F)(F)F.O=C([CH-]C(=O)C(F)(F)F)C(F)(F)F.O=C([CH-]C(=O)C(F)(F)F)C(F)(F)F.[Co+2]` [Co(II) MIL], for which the enrichment factors entry in data set [1] is “approximately 12”. In “Density of MIL”, this compound gave a density of approximately 1.3 g/mL.

Consider `CCn1cc[n+](C)c1.N#C[S-]` [[EMIM^+][SCN^−], 1-ethyl-3-methylimidazolium thiocyanate, reference compound], for which the “inoculated S. typhimurium recovered after IL-mediated matrix lysis” value with Salmonella typhimurium [2] was 34-45%. Besides, the “recovery on TSA or BSA” value in data set [3] (50% (vol/vol) solution, after 5 min of exposure) is reported as “no recovery”; in data set [3] (exposed as originally described for IL-based extraction from foods (Mester et al., 2010)) it was “no recovery”. As to `O=C([CH-]C(=O)C(F)(F)F)C(F)(F)F.O=C([CH-]C(=O)C(F)(F)F)C(F)(F)F.O=C([CH-]C(=O)C(F)(F)F)C(F)(F)F.O=C([CH-]C(=O)C(F)(F)F)C(F)(F)F.[Dy+3].[NH4+]` [Dy(III) ammonium salt, ammonium tetra(hexafluoroaceto)dysprosium salt, reference compound], the “growth on TSA or BSA” value in data set [3] (10 mg, 30 second vortex, 24 h incubation) is on record as “no growth was seen on either TSA or BSA”.

For the compound “1-butyl-1-methylpyrrolidinium bis(trifluoromethylsulfonyl)imide [[BMPyr^+][Ntf2^−]]”, the cell disruption entry in the data set on Salmonella typhimurium [4] and in the data set with E. coli was “completely disrupted” in each case. For `CCCCCCCCCCCCCC[P+](CCCCCC)(CCCCCC)CCCCCC.O=C([CH-]C(=O)C(F)(F)F)C(F)(F)F.O=C([CH-]C(=O)C(F)(F)F)C(F)(F)F.O=C([CH-]C(=O)C(F)(F)F)C(F)(F)F.O=C([CH-]C(=O)C(F)(F)F)C(F)(F)F.[Dy+3]` [Dy(III) MIL, [P6,6,6,14^+][Dy(III) (hfacac)4^−]], the “flocculation and growth after plating” value in data set [3] (15 μL added to cell suspension, 30 s vortex) is “extensive flocculation and no growth after plating”.

Take `[Cl][Dy]([Cl])[Cl]` [DyCl3, reference compound]: the “viable counts on TSA and BSA” value in data set [3] (0.1 mM and 1.0 mM solutions, 30 s exposure) is given as “substantially lower counts were observed on BSA than TSA”.

These data come from patent publication US12416052B2, “Capturing, concentrating, and detecting microbes in a sample using magnetic ionic liquids and recombinase polymerase amplification” (priority 2019, dated 2025).
